# Test system: neuronal cells
# Experiment: Intracellular calcium level [Ca2+]i in primary neurons (Fura-2 fluorescence ratio 340/380 nm)
# Format: cell-based, rat
# Source text: Material: The same materials as described in Perovic et al. (1998, Mech. Ageing Dev. 101:1-19) were used. Fura-2-acetoxymethylester (Fura-2-AM) was obtained from Molecular Probes (Leiden, The Netherlands), Dulbecco's modified Eagle's Medium with 4.5 g/L glucose (DMEM/HG), L-glutamic acid (L-Glu), and serotonin (5-HT) from Sigma-Aldrich (Taufkirchen, Germany) and the antibodies mouse-anti-neurofilament (68 kDa) and mouse-anti-glial-fibrillary-acidic-protein (GFAP) from Roche Diagnostics (Mannheim, Germany). Sorbicillactone A of the batch: 2208/2a was used.
# Primary neurons: The cortical cell culture was produced from the brains of 17-18 day-old rat embryos, according to a modified procedure [Freshney (1987) Culture of specific cell types. In: Culture of Animal Cells. A Manual of Basic Technique, A. R. Liss, New York, S. 257-288; Perovic et al. (1994) Eur. J. Pharmacol. (Mol. Pharmacol. Sec.) 288:27-33]. After the isolation, the cerebral-hemispheres were put into Hank's Balanced Salt Solution (HBSS) without Ca^2+ and Mg^2+, and the neuronal cells were subsequently dissociated in HBSS using 0.025% (w/v) trypsin (10 min.; 37° C.). The proteolytic reaction was stopped with 10% (v/v) foetal calf serum (FCS). The single-cell suspensions were centrifuged, and the resulting pellet was taken up into Dulbecco's modified Eagles's Medium with 4.5 g/L glucose (DMEM/HG) (contains 2 mM L-glutamine, 100 mU/L insulin, and 10% (v/v) FCS). The cells were plated in a chamber with poly-L-lysine (5 μg/mL, 300 μl/cm^2) in a cell density of 2.0×10^5 cells/cm^2. After two days the DMEM/HG/10%-FCS-medium was removed and replaced with DMEM/HG/serum-free medium. Two weeks after the isolation, the immune staining took place with anti-neurofilament (68 kDa) as a marker for neurons, and anti-GFAP as a marker for glial cells. The cultures contained >80% neurons; the residual 20% were GFAP-positive cells, mainly astrocytes (Ushijima et al. (1995) Eur. J. Neurosci. 7:1353-9). The neurons were held in an atmosphere of 95% air and 5% CO2 at 37° C.
# Loading of neurons with Fura-2-AM: The intracellular Ca^2+-concentration ([Ca^2+]i) was determined by fluorescence measurements. The ratio of the absorption of the Ca^2+-indicator dye Fura-2-AM at 340 and 380 nm (Grynkiewicz et al. (1985) J. Biol. Chem. 260:3440-50) was decisive. The neurons were loaded with 6 μM Fura-2-AM in DMEM/HG/serum-free medium (supplemented with 1% (w/v) bovine serum albumin) at 37° C. for 60 min. After incubation, the cells were washed two times with medium, and further incubated for 45 min at 37° C.
# Calcium-calibration curve: A calcium-calibration curve was produced according to the methods of Grynkiewicz et al. (1985, J. Biol. Chem. 260:3440-50). Fluorescence pictures were obtained for each buffer at 340 and 380 nm. The quotient from both fluorescence spectra (340/380 nm) was calculated, and depicted as a calibration curve. The quotient (340/380 nm [ratio-value]) of 1.0 corresponds to 228 nM [Ca^2+]i.
# Changes of the calcium level in neurons: In all experimental settings, the cells were first loaded with Fura-2-AM, and subsequently stimulated with different substances (in Locke's solution; 154 mM NaCl; 5.6 mM KCl; 3.6 mM NaHCO3; 5.6 mM glucose, and 10 mM Hepes; pH 7.4; without CaCl2). Sorbicillactone A was dissolved in a concentration of 10 mg/mL in 100% (v/v) DMSO, and stored at −20° C. In the first setting, the neurons were stimulated for 5 min with 0.1% (v/v) DMSO (control); after 10 min 200 μM L-glutamic acid (L-Glu), 200 μM serotonin (5-HT), and 2.5 mM CaCl2 were added to the cells. In a second setting, the effect of L-Glu, 5-HT, and 2.5 mM CaCl2 on the calcium level of pre-incubated neurons (each 5 min with 10 μg/mL sorbicillactone A) was tested. In all experiments, the [Ca^2+]i-level was measured for at least 20-25 min. […]
smiles,measurement,setting,value
C/C=C/C=C/C(O)=C1/C(=O)C(C)=C(O)[C@@]2(C)OC(=O)[C@@](C)(NC(=O)/C=C/C(=O)O)[C@@H]12 [sorbicillactone A],effect on [Ca2+]i in neuronal cells,10 μg/mL sorbicillactone A alone,nearly no effect
same,reduction in the [Ca2+]i-level,"pre-incubation 5 min with 10 μg/mL, then 200 μM L-Glu and 2.5 mM CaCl2, p<0.001, FIG. 1A",46.7%
same,reduction of the free calcium concentration compared to the control,"pre-incubation with 10 μg/mL, then 200 μM 5-HT and 2.5 mM CaCl2, FIG. 1B",77.6%

# Source: patent publication US20070135515A1, “Method for producing sorbicillactone a” (priority 2004, published 2007)
